Values of other authors, collected in US20110015368A1, “CD4-RECEPTOR-DERIVED PEPTIDES AND METHOD FOR THE PREPARATION THEREOF” (priority 2006, published 2011).

Tested on: HIV
Conditions: Esté et al. 1997

Substance | Inhibiting the infection of cells by HIV
heparin | capable of inhibiting the infection of cells by HIV
dextran sulphate | capable of inhibiting the infection of cells by HIV
chondroitin sulphate | not
